Laboratory results published in patent US20140242609A1, “Diagnosis and treatment of kidney stones, methods and compositions therefor” (Washington University, priority 2013, published 2014).
Where “and” joins values, the source holds several entries; their conditions need not be identical. Identical values can stand only once. Entries after “also recorded” stand apart in the source; their conditions may differ.

Assays:
claudin-14 mRNA = claudin-14 mRNA levels in mouse kidney after systemic treatment (real-time PCR); format: in vivo; details: for claudin-14 mRNA, change: 30 mg/kg BW−1 per day for 6 days, 24 hrs following the last treatment; for claudin-14 mRNA relative to control level: by 8 hrs and through to 12 hrs
Procedure: NPS2143 and cinacalcet (Table 1) were dissolved in vehicle—20% (w/v) (2-Hydroxypropyl)-β-cyclodextrin solution and fed to mice with gavage syringe. Cyclosporin-A (Sandimmune; Table 1) was diluted in 0.9% saline and I.P. injected to animals. Control animals received vehicle injection (13% wiv Cremophor EL and 32.9% ethanol). For dietary Ca^2+ manipulation, animals were fed with the following diets for six consecutive days: basal diet: 0.61% Ca^2+ (TestDiet #5755); low Ca^2+ diet: 0 Ca^++ (TestDiet #5855); high Ca^2+ diet: 5% Ca^2+ (TestDiet #5AVB). All animals had free access to water and were housed under a 12 hr light cycle. Blood samples were taken by cardiac puncture rapidly after initiation of terminal anesthesia and centrifuged at 4° C. for 10 min. Kidney were dissected out and immediately frozen at −80° C.
(§1) Total RNA including microRNA was extracted using Trizol (Invitrogen). Cellular mRNA was reverse transcribed using the Superscript-III kit (Invitrogen), followed by real-time PCR amplification using SYBR Green PCR Master Mix (Bio-Rad) and Eppendorf Realplex2S system. The design of claudin-14 primers was described above. The design of pri-miRNA primers was according to Ma et al., (2010). Results were expressed as 2^−ΔCt values with ΔCT=Ctgene−Ctβ-actin.
SAHA and TsA were dissolved in 5% (w/v) ethanol/0.9% saline solution and fed to mice with gavage syringe. Furosemide was dissolved in 50% (w/v) DMSO/0.9% saline solution and I.P. injected to animals. All animals had free access to water and were housed under a 12 hr light cycle. Blood samples were taken by cardiac puncture rapidly after initiation of terminal anesthesia and centrifuged at 4° C. for 10 min. Kidney were dissected out and immediately frozen at −80° C.
Total RNA including microRNA was extracted using Trizol (Invitrogen). Cellular mRNA was reverse transcribed using the Superscript-III kit (Invitrogen), followed by real-time PCR amplification using SYBR Green PCR Master Mix (Bio-Rad) and Eppendorf Realplex2S system. The design of claudin-14 primers was described before by Gong et al., 2012. The design of pri-miRNA primers and ChIP primers was according to Gong et al., 2013. Results were expressed as 2^−ΔCt values with ΔCT=Ctgene−Ctβ-actin. […]
NPS2143 and cinacalcet (Table 9) were dissolved in vehicle −20% (w/v) (2-Hydroxypropyl)-β-cyclodextrin solution and fed to mice with gavage syringe. Cyclosporin-A (Sandimmune; Table 9) was diluted in 0.9% saline and I.P. injected to animals. Control animals received CNI vehicle injection (13% wiv Cremophor EL and 32.9% ethanol). FK506 was dissolved in CNI vehicle, diluted in 0.9% saline and I.P. injected to animals. For dietary Ca^+ manipulation, animals were fed with the following diets for six consecutive days: basal diet: 0.610% Ca^++ (TestDiet #5755); low Ca^++ diet: 0 Ca^++ (TestDiet #5855); high Ca^++ diet: 5% Ca^+ (TestDiet #5AVB). All animals had free access to water and were housed under a 12 hr light cycle. Blood samples were taken by cardiac puncture rapidly after initiation of terminal anesthesia and centrifuged at 4° C. for 10 min. Kidney were dissected out and immediately frozen at −80° C.
(§2) Total RNA including microRNA was extracted using Trizol (Invitrogen). Cellular mRNA was reverse transcribed using the Superscript-III kit (Invitrogen), followed by real-time PCR amplification using SYBR Green PCR Master Mix (Bio-Rad) and Eppendorf Realplex2S system. The design of claudin-14 primers was described before by Gong. Y., et al., 2012. The design of pri-miRNA primers was according to Ma. L., et al., 2010. Results were expressed as 2^−ΔCt values with ΔCT=Ctgene−Ctβ-actin.

miR-9-1 promoter = experiment: ChIP over miR-9-1 promoter in TALH cells of treated mice; format: in vivo, mouse; details: for fold enrichment of NFATc1 over miR-9-1 promoter region: versus vehicle
Procedure: (§3) Freshly isolated TALH cells or primary TALH cell cultures were cross-linked in 1% paraformaldehyde (pH7.0) for 10 min at room temperature. The cross-linked cells were lysed following to instruction of MAGnify ChIP system (Invitrogen). Chromatin was sonicated into 500 bp fragments with Bioruptor UCD-200 (High power, 15 cycles of 30 seconds ON, 30 seconds OFF; Diagenode). Sheared chromatin was precipitated with antibody-bound Dynabeads (Invitrogen). Following reverse crosslink and DNA extraction, antibody-bound DNA was eluted and analyzed with real-time PCR. Two criteria for normalization were applied: fold enrichment over anti-IgG background signal and input control over chromatin input signal.
as §3, with “OFF,” for “OFF;”

miR-374 promoter = experiment: ChIP over miR-374 promoter in TALH cells of treated mice; format: in vivo, mouse; details: for H3K9 and H3K14 acetylation levels, miR-374 promoter region / fold enrichment of NFATc1 over miR-374 promoter region: 30 mg/kg BW−1, 2 hrs; for H3K9 and H3K14 acetylation levels, miR-374 promoter region: higher than vehicle level; for fold enrichment of NFATc1 over miR-374 promoter region: versus vehicle
Procedure: as §3
as §3, with “OFF,” for “OFF;”

pri-miR-374 = pri-miR-374 transcript levels in TALH of treated mouse kidneys (real-time PCR); format: in vivo; details: for pri-miR-374 levels versus control: 8 hrs
Excerpt: as §1
To measure the transcriptional level for microRNA gene in vivo in the kidney, the inventors designed primers (see Methods; Table 2) to amplify the pri-miRNA molecule, the original transcript for microRNA gene that had not yet been subjected to any nuclear or cellular processing. Because both miR-9 and miR-374 had broader localization profiles along the nephron, the inventors isolated the TALH tubular cells for pri-miRNA analyses from the mouse kidney described elsewhere in this study. WT mice (strain: C57BL/6) were treated with NPS2143 or cinacalcet as described for claudin-14 analyses and assayed for pri-miRNA levels in isolated TALH cells at 2 hrs and 8 hrs respectively. […] NPS2143 and cinacalcet also profoundly regulated pri-miR-374. […] The expression levels of miR-9-1 and miR-374 genes were both inversely correlated with that of claudin-14 gene in the kidney, compatible with the silencing role of microRNA in regulating its target gene.
Total RNA including microRNA was extracted using Trizol (Invitrogen). Cellular mRNA was reverse transcribed using the Superscript-III kit (Invitrogen), followed by real-time PCR amplification using SYBR Green PCR Master Mix (Bio-Rad) and Eppendorf Realplex2S system. The design of claudin-14 primers was described before by Gong et al., 2012. The design of pri-miRNA primers and ChIP primers was according to Gong et al., 2013. Results were expressed as 2^−ΔCt values with ΔCT=Ctgene−Ctβ-actin.
as §2

[1] = TPTX mice, single dose 30 mg/kg BW−1, 2 hrs
[2] = cyclosporine-A pre-treated animals, 30 mg/kg BW−1, 2 hrs
[3] = second dose 30 mg/kg BW−1 at 12 hrs, measured at 14 hrs
[4] = single oral dose 30 mg/kg BW−1, 30 mg/kg

## O=C(CCCCCCC(=O)Nc1ccccc1)NO [SAHA, Suberanilohydroxamic acid]
claudin-14 mRNA; 5 mg/kg to 25 mg/kg, 4 hrs
  CLDN14 mRNA, dose response: downregulation of CLDN14 at dosage as low as 5 mg/kg
claudin-14 mRNA; 25 mg/kg BW−1, 12 hrs
  effects on CLDN14 mRNA in the kidney: dissipated
claudin-14 mRNA; 25 mg/kg BW−1, by 4 hrs and through to at least 8 hrs
  reduction of CLDN14 expression in the kidney: persisted
claudin-14 mRNA; single dose 25 mg/kg BW−1, 2 hrs
  CLDN14 mRNA levels in the kidney, reduction: 56%
miR-9-1 promoter; 25 mg/kg BW−1, 4 hrs
  H3K9 and H3K14 acetylation, miR-9-1 promoter, increase: 2.40 fold
  NFAT binding to miR-9-1 promoter: not affected
miR-374 promoter; 25 mg/kg BW−1, 4 hrs
  H3K9 and H3K14 acetylation, miR-374 promoter, increase: 2.45 fold
  NFAT binding to miR-374 promoter: not affected
pri-miR-374; 25 mg/kg BW−1, 4 hrs
  transcriptional levels of miR-374 gene (pri-miR-374), increase: 1.85 fold

## C[C@@H](NCCCc1cccc(C(F)(F)F)c1)c1cccc2ccccc12 [cinacalcet]
claudin-14 mRNA; 15 mg/kg BW−1, 2 hrs
  claudin-14 expression, induction (dose response): 2.33 fold
claudin-14 mRNA; 30 mg/kg BW−1, 2 hrs
  claudin-14 expression, induction (dose response): 3.17 fold
claudin-14 mRNA
  claudin-14 mRNA, change: Neither NPS2143 nor cinacalcet caused changes
claudin-14 mRNA; 45 mg/kg BW−1, 2 hrs
  claudin-14 expression, induction (dose response): 6.38 fold
claudin-14 mRNA; [1]
  claudin-14 expression levels, upregulation: 3.41 fold
claudin-14 mRNA; [2]
  claudin-14 mRNA levels, increase: 1.73 fold
claudin-14 mRNA; [3]
  claudin-14 mRNA levels, increase: 3.23 fold
claudin-14 mRNA; single oral dose 30 mg/kg BW−1, 2 hrs, intact mice, versus vehicle
  claudin-14 mRNA level, upregulation: 3.3 fold
claudin-14 mRNA; single oral dose 30 mg/kg BW−1, 4 hrs, versus vehicle, 30 mg/kg
  claudin-14 mRNA level, upregulation (ceiling): 3.97 fold and 3.98 fold
claudin-14 mRNA; [4]
  claudin-14 mRNA relative to control level: recovered to its control level; also recorded: no significant change
miR-9-1 promoter; 30 mg/kg BW−1, 2 hrs
  fold enrichment of NFATc1 over miR-9-1 promoter region: without significant effect
miR-374 promoter
  H3K9 and H3K14 acetylation levels, miR-374 promoter region: not
  fold enrichment of NFATc1 over miR-374 promoter region: without significant effect
pri-miR-374; 30 mg/kg BW−1, 2 hrs
  pri-miR-374, downregulation: 71%
pri-miR-374; 30 mg/kg BW−1
  pri-miR-374 levels versus control: not different from control
pri-miR-374; TPTX mice, 30 mg/kg BW−1, 2 hrs
  pri-miR-374 level, reduction: 53%
pri-miR-374; [2]
  pri-miR-374 mRNA levels, decrease: 39%

## CC(C)(Cc1ccc2ccccc2c1)NC[C@@H](O)COc1cccc(Cl)c1C#N [NPS2143]
claudin-14 mRNA; 15 mg/kg BW−1, 2 hrs
  claudin-14 mRNA levels, reduction (dose response): 45%
claudin-14 mRNA; 30 mg/kg BW−1, 2 hrs
  claudin-14 mRNA levels, reduction (dose response): 82%
claudin-14 mRNA
  claudin-14 mRNA, change: Neither NPS2143 nor cinacalcet caused changes
claudin-14 mRNA; 45 mg/kg BW−1, 2 hrs
  claudin-14 mRNA levels, reduction (dose response): 89%
claudin-14 mRNA; [1]
  claudin-14 gene expression, downregulation: 35%
claudin-14 mRNA; [2]
  claudin-14 mRNA levels, change: failed to elicit any significant change
claudin-14 mRNA; [3]
  claudin-14 mRNA levels, reduction: 77%
claudin-14 mRNA; single oral dose 30 mg/kg BW−1, 2 hrs, versus vehicle
  claudin-14 mRNA level, downregulation: 80%
claudin-14 mRNA; single oral dose 30 mg/kg BW−1, 4 hrs
  claudin-14 mRNA, percent of control level: 78%
claudin-14 mRNA; [4]
  claudin-14 mRNA relative to control level: completely recovered to its control level; also recorded: no significant change
miR-9-1 promoter; 30 mg/kg BW−1, 2 hrs, higher than vehicle level
  H3K9 and H3K14 acetylation levels, miR-9-1 promoter region: 2.43 fold
miR-9-1 promoter; 30 mg/kg BW−1, 2 hrs
  fold enrichment of NFATc1 over miR-9-1 promoter region: 3.55 fold
miR-374 promoter
  H3K9 and H3K14 acetylation levels, miR-374 promoter region: 1.93 fold
  fold enrichment of NFATc1 over miR-374 promoter region: 1.51 fold
pri-miR-374; 30 mg/kg BW−1, 2 hrs
  pri-miR-374, upregulation: 2.91 fold
pri-miR-374; 30 mg/kg BW−1
  pri-miR-374 levels versus control: not different from control
pri-miR-374; TPTX mice, 30 mg/kg BW−1
  pri-miR-374 level, change: failed to elicit a significant change
pri-miR-374; [2]
  pri-miR-374 mRNA levels, change: failed to elicit any significant change
